Data published in patent US20240025908A1, “COMPOUND USED AS KINASE INHIBITOR AND USE THEREOF” (TYK MEDICINES, INC., priority 2020, published 2024).

Assays:
Ba/F3-CD74-ROS1-G2032R = assay: Inhibition of cell proliferation (CellTiter-Glo), Ba/F3-CD74-ROS1-G2032R; format: cell-based; conditions: 72 hours
Protocol: (§1) The experiment of inhibiting cell proliferation by compounds was carried out in Hefei Zhongkeprecedo Biomedical Technology Co., Ltd. The Ba/F3 engineered cell line stably transfected with different kinase genes was recovered with RPMI 1640 medium (Biological Industries, Israel)+10% fetal bovine serum (Biological Industries, Israel)+1% double antibody (Penicillin Streptomycin solution, Coring, USA) and cultivated two generations. The logarithmic growth phase cell suspension was taken, and 2000 cells/well were inoculated on 96-well white cell culture plate (Corning 3917, NY, USA) with a volume of 95 μL per well. 5 μL of 20×DMSO solution of the compound to be tested was added into the culture plate containing 95 μL of cell suspension. The blank control group was added with corresponding volume of DMSO, mixed well, and incubated in a 5% CO2 incubator at 37° C. for 72 hours. CellTiter-Glo was used to detect cell viability.

ALK = ALK (Homo sapiens (Human), UniProt Q9UM73); assay: Radio-tagged HotSpot kinase assay, ALK; format: biochemical
Protocol: (§2) Inhibition of protein kinase activity by compounds was carried out on the Radio-tagged HotSpot kinase experimental platform of Reaction Biology Corporation. Fresh reaction solution (20 mM TIEPESpH 7.5, 10 mM MgCl2, 1 mM EGTA, 0.02% Brij35, 0.02 mg/ml BSA, 0.1 mM Na3VO4, 2 mM DTT, […]) containing corresponding substrates was prepared, cofactor and kinase to be tested were added into the above solution and mixed gently. Echo550 pipetting system was used to add the test compound DMSO solution to each well (the blank control group was added with the corresponding volume of DMSO), then 33P-ATP (with a final specific activity of 0.01 μCi/μL) was added to start the reaction. The reaction solution was incubated at room temperature for 120 minutes. Transferred the incubated reaction solution to P81 ion exchange chromatographic paper (Whatman #3698-915), eluted with […] phosphoric acid solution, and the amount of radioactive phosphorylated substrate remaining on the chromatographic paper was detected.

ALK (G1202R) = ALK (G1202R) (Homo sapiens (Human), UniProt Q9UM73, G1202R); assay: Radio-tagged HotSpot kinase assay, ALK (G1202R); format: biochemical
Protocol: as §2

Ba/F3-TEL-ALK-G1202R = assay: Inhibition of cell proliferation (CellTiter-Glo), Ba/F3-TEL-ALK-G1202R; format: cell-based; conditions: 72 hours
Protocol: as §1

TRKA (G677C) = TRKA (G677C) (Homo sapiens, UniProt P04629, G667C); assay: Radio-tagged HotSpot kinase assay, TRKA (G677C); format: biochemical
Protocol: as §2

ROS1 = ROS1 (Homo sapiens (Human), UniProt P08922); assay: Radio-tagged HotSpot kinase assay, ROS1; format: biochemical
Protocol: as §2

ROS1 (G2032R) = ROS1 (G2032R) (Homo sapiens (Human), UniProt P08922, G2032R); assay: Radio-tagged HotSpot kinase assay, ROS1 (G2032R); format: biochemical
Protocol: as §2

TRKA = TRKA (Homo sapiens (Human), UniProt P04629); assay: Radio-tagged HotSpot kinase assay, TRKA; format: biochemical
Protocol: as §2

Ba/F3-LMNA-NTRK1-G595R = assay: Inhibition of cell proliferation (CellTiter-Glo), Ba/F3-LMNA-NTRK1-G595R; format: cell-based; conditions: 72 hours
Protocol: as §1

Chain of TRKA (P04629 33-796): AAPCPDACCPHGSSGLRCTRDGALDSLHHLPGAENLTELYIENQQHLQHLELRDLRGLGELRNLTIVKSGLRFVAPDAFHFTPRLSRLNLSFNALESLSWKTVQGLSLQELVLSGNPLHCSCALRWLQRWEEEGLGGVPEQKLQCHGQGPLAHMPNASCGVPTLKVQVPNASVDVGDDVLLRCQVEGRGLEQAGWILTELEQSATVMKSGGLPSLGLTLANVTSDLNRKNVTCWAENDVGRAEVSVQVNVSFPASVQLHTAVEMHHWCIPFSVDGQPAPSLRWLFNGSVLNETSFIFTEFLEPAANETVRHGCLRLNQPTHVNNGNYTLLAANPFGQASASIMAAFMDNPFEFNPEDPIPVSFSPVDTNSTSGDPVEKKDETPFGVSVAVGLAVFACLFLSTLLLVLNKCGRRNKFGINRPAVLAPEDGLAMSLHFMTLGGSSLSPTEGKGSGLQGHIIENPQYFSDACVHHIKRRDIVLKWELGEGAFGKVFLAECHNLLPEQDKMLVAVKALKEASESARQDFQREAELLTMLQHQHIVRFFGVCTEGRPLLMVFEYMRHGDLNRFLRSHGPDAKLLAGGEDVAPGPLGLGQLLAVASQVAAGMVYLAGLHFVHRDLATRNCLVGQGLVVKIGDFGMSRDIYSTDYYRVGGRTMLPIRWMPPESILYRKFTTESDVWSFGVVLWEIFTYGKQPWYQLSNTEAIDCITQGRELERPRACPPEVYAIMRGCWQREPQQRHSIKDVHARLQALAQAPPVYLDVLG
Chain of ROS1 (P08922 28-2347): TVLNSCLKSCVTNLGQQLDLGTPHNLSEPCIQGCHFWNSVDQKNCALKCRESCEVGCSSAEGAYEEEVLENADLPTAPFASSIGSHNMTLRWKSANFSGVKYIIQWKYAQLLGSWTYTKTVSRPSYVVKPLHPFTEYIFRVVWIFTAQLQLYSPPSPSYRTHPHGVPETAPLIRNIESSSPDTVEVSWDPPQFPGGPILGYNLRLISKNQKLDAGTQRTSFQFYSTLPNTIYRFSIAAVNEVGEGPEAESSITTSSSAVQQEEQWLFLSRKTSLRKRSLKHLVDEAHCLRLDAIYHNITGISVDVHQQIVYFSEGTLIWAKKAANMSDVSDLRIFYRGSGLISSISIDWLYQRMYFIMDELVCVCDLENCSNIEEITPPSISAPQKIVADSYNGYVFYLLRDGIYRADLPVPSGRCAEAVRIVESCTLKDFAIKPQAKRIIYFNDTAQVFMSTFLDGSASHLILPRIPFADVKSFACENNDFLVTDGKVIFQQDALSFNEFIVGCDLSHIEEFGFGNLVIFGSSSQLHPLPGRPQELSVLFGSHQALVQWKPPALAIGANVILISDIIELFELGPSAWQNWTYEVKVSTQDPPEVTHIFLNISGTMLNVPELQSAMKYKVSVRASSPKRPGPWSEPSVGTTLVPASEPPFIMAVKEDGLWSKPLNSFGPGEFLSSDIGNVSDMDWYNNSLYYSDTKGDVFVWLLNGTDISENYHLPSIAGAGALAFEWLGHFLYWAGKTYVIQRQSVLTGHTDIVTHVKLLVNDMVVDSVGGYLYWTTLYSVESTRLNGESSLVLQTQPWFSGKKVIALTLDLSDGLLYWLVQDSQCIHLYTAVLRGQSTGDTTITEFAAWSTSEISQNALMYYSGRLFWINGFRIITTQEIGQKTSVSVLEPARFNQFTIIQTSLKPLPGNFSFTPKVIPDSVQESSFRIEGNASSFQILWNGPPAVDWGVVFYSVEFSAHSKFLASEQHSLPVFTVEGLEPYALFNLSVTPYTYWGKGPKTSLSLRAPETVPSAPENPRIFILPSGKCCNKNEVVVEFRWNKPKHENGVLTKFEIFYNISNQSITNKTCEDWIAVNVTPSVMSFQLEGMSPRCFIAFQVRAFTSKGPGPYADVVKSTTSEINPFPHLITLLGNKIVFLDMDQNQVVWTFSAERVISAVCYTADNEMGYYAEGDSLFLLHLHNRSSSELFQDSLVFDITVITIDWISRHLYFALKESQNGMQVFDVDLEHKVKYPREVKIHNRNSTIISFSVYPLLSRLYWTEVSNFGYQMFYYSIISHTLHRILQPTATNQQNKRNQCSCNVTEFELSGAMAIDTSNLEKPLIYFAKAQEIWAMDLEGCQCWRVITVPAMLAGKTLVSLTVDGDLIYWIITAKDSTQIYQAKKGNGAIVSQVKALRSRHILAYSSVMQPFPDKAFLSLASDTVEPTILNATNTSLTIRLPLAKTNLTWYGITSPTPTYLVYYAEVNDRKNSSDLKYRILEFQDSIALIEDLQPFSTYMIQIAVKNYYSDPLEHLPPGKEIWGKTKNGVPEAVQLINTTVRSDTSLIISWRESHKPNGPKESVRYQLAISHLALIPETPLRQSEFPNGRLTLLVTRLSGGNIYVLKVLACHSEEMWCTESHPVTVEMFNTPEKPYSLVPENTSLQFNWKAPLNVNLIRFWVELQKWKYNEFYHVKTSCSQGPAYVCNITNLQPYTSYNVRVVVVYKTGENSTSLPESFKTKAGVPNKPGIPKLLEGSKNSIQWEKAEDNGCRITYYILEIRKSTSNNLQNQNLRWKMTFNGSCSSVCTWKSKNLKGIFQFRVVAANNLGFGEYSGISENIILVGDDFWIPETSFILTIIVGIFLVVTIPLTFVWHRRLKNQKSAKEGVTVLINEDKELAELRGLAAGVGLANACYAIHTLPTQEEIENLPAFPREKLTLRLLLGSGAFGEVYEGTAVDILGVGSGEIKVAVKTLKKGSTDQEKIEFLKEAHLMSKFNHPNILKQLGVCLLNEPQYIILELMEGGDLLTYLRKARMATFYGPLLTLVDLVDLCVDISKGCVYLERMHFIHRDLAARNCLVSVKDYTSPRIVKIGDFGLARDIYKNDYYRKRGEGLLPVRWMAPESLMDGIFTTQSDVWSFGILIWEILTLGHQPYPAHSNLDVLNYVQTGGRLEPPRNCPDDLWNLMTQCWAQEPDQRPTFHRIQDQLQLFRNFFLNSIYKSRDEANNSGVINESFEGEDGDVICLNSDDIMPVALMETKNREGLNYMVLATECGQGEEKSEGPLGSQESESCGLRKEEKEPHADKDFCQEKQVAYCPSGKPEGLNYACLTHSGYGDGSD
Chain of TRKA (G677C) (P04629 33-796 G667C limits assumed): as the sequence (P04629 33-796) above, with G635C counted along it
Chain of ALK (Q9UM73 19-1620): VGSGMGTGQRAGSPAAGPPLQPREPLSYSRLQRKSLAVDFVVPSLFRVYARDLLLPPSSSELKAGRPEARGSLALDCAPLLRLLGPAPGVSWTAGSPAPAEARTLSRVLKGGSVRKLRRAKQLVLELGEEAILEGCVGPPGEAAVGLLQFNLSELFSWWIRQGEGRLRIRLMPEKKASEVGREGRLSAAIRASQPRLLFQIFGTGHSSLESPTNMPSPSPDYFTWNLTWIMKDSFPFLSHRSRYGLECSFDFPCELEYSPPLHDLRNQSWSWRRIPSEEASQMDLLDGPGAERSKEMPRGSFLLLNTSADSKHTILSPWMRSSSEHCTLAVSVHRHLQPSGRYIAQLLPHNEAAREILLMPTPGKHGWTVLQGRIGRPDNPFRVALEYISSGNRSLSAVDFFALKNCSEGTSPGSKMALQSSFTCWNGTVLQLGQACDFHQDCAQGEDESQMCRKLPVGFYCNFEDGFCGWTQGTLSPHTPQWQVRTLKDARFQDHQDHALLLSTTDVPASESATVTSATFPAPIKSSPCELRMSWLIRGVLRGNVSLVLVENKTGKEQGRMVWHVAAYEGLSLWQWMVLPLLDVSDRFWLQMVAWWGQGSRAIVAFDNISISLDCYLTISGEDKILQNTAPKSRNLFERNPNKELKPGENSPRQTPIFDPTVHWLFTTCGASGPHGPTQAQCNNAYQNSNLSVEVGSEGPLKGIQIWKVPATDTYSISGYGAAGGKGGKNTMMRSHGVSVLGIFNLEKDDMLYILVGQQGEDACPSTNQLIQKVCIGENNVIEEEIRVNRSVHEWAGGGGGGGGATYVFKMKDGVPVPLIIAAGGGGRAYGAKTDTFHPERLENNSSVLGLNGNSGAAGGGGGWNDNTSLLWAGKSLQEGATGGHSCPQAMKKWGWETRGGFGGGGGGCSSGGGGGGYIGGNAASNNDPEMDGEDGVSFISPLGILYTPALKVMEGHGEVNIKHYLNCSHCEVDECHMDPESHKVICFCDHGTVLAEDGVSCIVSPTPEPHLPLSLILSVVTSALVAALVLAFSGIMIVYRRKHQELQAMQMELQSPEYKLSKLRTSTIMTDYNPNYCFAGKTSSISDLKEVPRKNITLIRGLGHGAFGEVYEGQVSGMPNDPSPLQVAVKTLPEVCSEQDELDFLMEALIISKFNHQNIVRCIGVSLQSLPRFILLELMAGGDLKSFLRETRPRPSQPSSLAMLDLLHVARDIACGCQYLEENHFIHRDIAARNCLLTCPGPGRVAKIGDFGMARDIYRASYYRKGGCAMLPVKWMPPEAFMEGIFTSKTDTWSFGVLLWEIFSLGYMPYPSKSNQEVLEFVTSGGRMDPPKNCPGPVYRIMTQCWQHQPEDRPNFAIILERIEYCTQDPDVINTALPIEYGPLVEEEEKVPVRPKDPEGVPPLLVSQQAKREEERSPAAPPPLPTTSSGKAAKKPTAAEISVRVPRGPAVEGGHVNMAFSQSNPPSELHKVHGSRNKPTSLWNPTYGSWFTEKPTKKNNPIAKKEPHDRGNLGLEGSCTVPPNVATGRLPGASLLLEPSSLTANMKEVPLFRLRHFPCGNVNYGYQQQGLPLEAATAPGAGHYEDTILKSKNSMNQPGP
Chain of ROS1 (G2032R) (P08922 28-2347 G2032R): as the sequence (P08922 28-2347) above, with G2005R counted along it
Chain of ALK (G1202R) (Q9UM73 19-1620 G1202R): as the sequence (Q9UM73 19-1620) above, with G1184R counted along it

`C[C@@H](Nc1ccn2ncc(C3=NOCCN3)c2n1)c1cc(F)ccc1OC(F)(F)F` [Example 26] showed an IC50 (Ba/F3-CD74-ROS1-G2032R) of 35.2 nM, an IC50 (ALK) of 0.5 to 5 nM and an IC50 (ALK (G1202R)) of 5 to 50 nM. It also gave an IC50 (Ba/F3-TEL-ALK-G1202R) of 100 nM, an IC50 (TRKA (G677C)) of 0.5 to 5 nM and an IC50 (ROS1) of under 0.5 nM. For the same compound, the IC50 (ROS1 (G2032R)) was 0.5 to 5 nM, the IC50 (TRKA) was under 0.5 nM and the IC50 (Ba/F3-LMNA-NTRK1-G595R) was 11.2 nM.
